In US20100112042A1, “Processes and Compositions for Liposomal and Efficient Delivery of Gene Silencing Therapeutics” (MDRNA, INC., priority 2008, published 2010):
Where no end group is shown, it is not given here.

Columns and labels:
dsRNA = assay: SYBR-GOLD Dye Binding Assay (peptide binding to RNAi-inducing agent); conditions: FIG. 6; dsRNA 10 μg/ml, 10 mM hepes/5% dextrose pH 7.4
Description: The relative strength of the binding of a cationic peptide to an RNAi-inducing agent was measured with a dye binding assay.
The RNAi-inducing agent was prepared at 7.8 μl in 10 ml to make a 20 μg/ml stock, then 75 μl/well. A SYBR gold dilution was prepared at 3.75 μl in 15 ml for 1:4000 dilution for a 2.5× stock.
Peptides were dissolved in Hepes buffer with 5% dextrose and diluted. Peptides were further diluted so that 75 μl could be added to each well resulting in the desired N:P (ranging from 0-4). Peptides were assumed to have a purity of 50%, but actual peptide amount was unknown.
A SYBR-GOLD Dye Binding Assay was performed. A 96-well plate assay with sample volume of 150 μl per well. Final dsRNA concentration was 10 μg/ml in 10 mM hepes/5% dextrose at pH 7.4. Peptides were diluted into different working solutions such that equal volumes were added to reach different N/P ratios. For the addition procedure, dsRNA was first added (75 μl of 20 μg/ml), followed by […] of 2.5×SYBR Gold. Peptide ([…]) was then added to compete off the SYBR dye. Total volume was […]. Fluorescence was corrected from background of dye alone in buffer. SYBR-Gold ex/em was 495 nm/537 nm, read on Molecular Devices plate reader.

Cyclophilin B (PPIB) = assay: In vitro assay for PPIB gene expression knockdown in A549 cells; format: cell-based, human; conditions: for Knockdown (%) (vs dsRNA control): A549 cells, dsRNA DC4377 100 nM; for Knockdown (%) vs control / Knockdown (%) vs untransf: dsRNA DX4221 100 nM
Description: Cyclophilin B (PPIB) gene knockdown measurements can be used as a primary activity-based in vitro assay for interfering RNA delivery formulations. Typically, the measurements were made as described below, with minor variations.
Cyclophilin B (PPIB) gene expression knockdown was measured in A549 human alveolar basal epithelial cells. For PPIB gene knockdown measurements, A549 cells were transfected with an interfering RNA formulation, total RNA prepared 24 hours after transfection, and PPIB mRNA assayed by RT-PCR. QRT-PCR of 36B4 (acidic ribosomal phosphoprotein PO) mRNA expression was performed for normalization.
A549 cells were seeded at 7,500 cells/well (96-well) and incubated overnight in medium. Confluency was about 50% at the time of transfection. Transfection complex was prepared by adding an interfering RNA to medium (OptiMEM™) and vortexing, separately adding a delivery formulation to medium (OptiMEM™) and vortexing, and finally mixing the interfering RNA in medium with the delivery formulation in medium and incubating 20 minutes at room temperature to make the transfection complex. The medium for incubated cells was replaced with fresh OptiMEM™ and transfection complex was added to each well. Cells were incubated for 5 hrs at 37° C. and 5% CO2, then complete medium was added (to a final fetal bovine serum concentration 10%) and incubation continued until 24 hours post-transfection.
For PPIB gene knockdown cells were lysed and RNA prepared (Invisorb RNA Cell HTS 96-Kit/C, Invitek, Berlin, or RNeasy 96 Kit, Qiagen). Quantitative RT-PCR was performed using One-Step qRT-PCR kit (Invitrogen) on a DNA Engine Opticon2 thermal cycler (BioRad).
Primers used for PPIB were: […]

[1] = endosomolytic agent PN3033, binary N/P 5, final N/P 2.5
[2] = endosomolytic agent none, binary N/P 5
[3] = endosomolytic agent PN3033, binary N/P 4, final N/P 2.5
[4] = endosomolytic agent PN3033, binary N/P 4, final N/P 3.5
[5] = endosomolytic agent PN3033, binary N/P 5, final N/P 3.5
[6] = endosomolytic agent PN3033, binary N/P 5, final N/P 4.5

RRRRRCCRRRRR (cysteine pairing not given here; also: dimer) [PN3499, dimer peptide containing a total of 10 arginines]
binding to dsRNA (ability to displace SYBR-Gold dye) (dsRNA): strongest binding

WWHHKKRRCCRRKKHHWW [PN4110, triggered release peptide]
Knockdown (%) (vs dsRNA control) (Cyclophilin B (PPIB); [1]): 65% | Knockdown (%) (vs dsRNA control) (Cyclophilin B (PPIB); endosomolytic agent PN3033, binary N/P 10, final N/P 5): 63% | Knockdown (%) (vs dsRNA control) (Cyclophilin B (PPIB); [2]): 0% | Knockdown (%) vs control (Cyclophilin B (PPIB); [3]): 50% | Knockdown (%) vs untransf (Cyclophilin B (PPIB); [3]): 55% | Knockdown (%) vs control (Cyclophilin B (PPIB); [4]): 41% | Knockdown (%) vs untransf (Cyclophilin B (PPIB); [4]): 36% | Knockdown (%) vs control (Cyclophilin B (PPIB); [1]): 72% | Knockdown (%) vs untransf (Cyclophilin B (PPIB); [1]): 70% | Knockdown (%) vs control (Cyclophilin B (PPIB); [5]): 74% | Knockdown (%) vs untransf (Cyclophilin B (PPIB); [5]): 72% | Knockdown (%) vs control (Cyclophilin B (PPIB); [6]): 36% | Knockdown (%) vs untransf (Cyclophilin B (PPIB); [6]): 40% | Knockdown (%) vs control (Cyclophilin B (PPIB); [2]): 14% | Knockdown (%) vs untransf (Cyclophilin B (PPIB); [2]): 11%
